Target: T1, Full length human recombinant HDAC6 protein (Homo sapiens, UniProt Q9UBN7)
T1 sequence (Q9UBN7 1-1215): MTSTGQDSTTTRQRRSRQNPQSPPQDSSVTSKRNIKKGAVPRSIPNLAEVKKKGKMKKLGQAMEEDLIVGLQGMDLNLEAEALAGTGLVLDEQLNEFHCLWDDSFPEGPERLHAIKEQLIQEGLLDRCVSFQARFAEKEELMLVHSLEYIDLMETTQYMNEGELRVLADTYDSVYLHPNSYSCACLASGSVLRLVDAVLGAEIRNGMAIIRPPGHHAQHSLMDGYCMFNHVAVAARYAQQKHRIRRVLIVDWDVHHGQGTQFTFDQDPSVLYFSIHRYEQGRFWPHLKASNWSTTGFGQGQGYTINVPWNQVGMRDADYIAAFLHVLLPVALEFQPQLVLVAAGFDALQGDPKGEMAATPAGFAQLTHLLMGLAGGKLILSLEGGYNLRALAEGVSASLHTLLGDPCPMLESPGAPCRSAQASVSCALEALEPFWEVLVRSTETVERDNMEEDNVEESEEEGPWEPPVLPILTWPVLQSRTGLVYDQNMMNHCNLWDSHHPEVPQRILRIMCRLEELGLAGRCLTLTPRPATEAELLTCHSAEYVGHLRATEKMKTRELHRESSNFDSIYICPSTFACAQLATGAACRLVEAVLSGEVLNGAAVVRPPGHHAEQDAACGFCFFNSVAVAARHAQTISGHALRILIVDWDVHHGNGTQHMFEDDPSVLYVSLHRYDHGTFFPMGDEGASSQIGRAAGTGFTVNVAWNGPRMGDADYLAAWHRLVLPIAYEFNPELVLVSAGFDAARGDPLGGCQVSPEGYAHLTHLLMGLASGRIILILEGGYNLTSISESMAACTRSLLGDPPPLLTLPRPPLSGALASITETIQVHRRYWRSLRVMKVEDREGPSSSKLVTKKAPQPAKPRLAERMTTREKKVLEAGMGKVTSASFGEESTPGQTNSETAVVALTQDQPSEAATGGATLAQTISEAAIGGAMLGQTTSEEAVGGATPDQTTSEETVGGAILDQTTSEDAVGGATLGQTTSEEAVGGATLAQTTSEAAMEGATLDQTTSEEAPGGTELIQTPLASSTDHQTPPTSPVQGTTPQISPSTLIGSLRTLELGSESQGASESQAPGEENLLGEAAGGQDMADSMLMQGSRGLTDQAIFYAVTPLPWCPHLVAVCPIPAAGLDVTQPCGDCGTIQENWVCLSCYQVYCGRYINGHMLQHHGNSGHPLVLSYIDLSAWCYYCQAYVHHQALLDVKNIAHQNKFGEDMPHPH
Assay: In vitro histone deacetylase assay: enzymatic HDAC6 electrophoretic mobility shift assay
Format: biochemical
Settings: 1 nM enzyme, 2 μM peptide substrate RHKK(Ac)-NH2, 25° C., 12 concentrations; read-out: Inhibitory Concentration (IC50) Values against HDAC6, Activity Range

Compound	IC50
CC(C)[C@H]1COc2cc(C(=O)NO)ccc2CN1C(=O)C1CCOCC1 [(S)-N-hydroxy-3-isopropyl-4-(tetrahydro-2H-pyran-4-carbonyl)-2,3,4,5-tetrahydrobenzo[f][1,4]oxazepine-8-carboxamide]	≤ 100 nM
CC(C)[C@@H]1c2ccc(C(=O)NO)cc2OCCN1C(=O)C1COC1 [(R)-N-hydroxy-5-isopropyl-4-(oxetane-3-carbonyl)-2,3,4,5-tetrahydrobenzo[f][1,4]oxazepine-8-carboxamide]	> 500 nM
O=C(NO)c1ccc2c(c1)OCCN(C(=O)[C@@H]1CCCOC1)C2 [(R)-N-hydroxy-4-(tetrahydro-2H-pyran-3-carbonyl)-2,3,4,5-tetrahydrobenzo[f][1,4]oxazepine-8-carboxamide]	≤ 100 nM
C[C@@H]1CN(C=O)Cc2ccc(C(=O)NO)cc2O1 [(R)-4-formyl-N-hydroxy-2-methyl-2,3,4,5-tetrahydrobenzo[f][1,4]oxazepine-8-carboxamide]	≤ 100 nM
COC[C@@H]1CN(C(=O)C2CCOCC2)Cc2ccc(C(=O)NO)cc2O1 [(S)-N-hydroxy-2-(methoxymethyl)-4-(tetrahydro-2H-pyran-4-carbonyl)-2,3,4,5-tetrahydrobenzo[f][1,4]oxazepine-8-carboxamide]	100 to 500 nM
O=C(NO)c1ccc2c(c1)OCCN(C(=O)C1CCOC1)C2 (stereo not drawn) [N-hydroxy-4-(tetrahydrofuran-3-carbonyl)-2,3,4,5-tetrahydrobenzo[f][1,4]oxazepine-8-carboxamide]	≤ 100 nM
C[C@H]1COc2cc(C(=O)NO)ccc2CN1C(=O)[C@@]1(C)CCOC1 [(S)-N-hydroxy-3-methyl-4-((S)-3-methyltetrahydrofuran-3-carbonyl)-2,3,4,5-tetrahydrobenzo[f][1,4]oxazepine-8-carboxamide]	≤ 100 nM
C[C@H]1COc2cc(C(=O)NO)ccc2CN1C(=O)C1CC(OCc2ccccc2)C1 (stereo partly drawn) [(S)-4-(3-(benzyloxy)cyclobutane-1-carbonyl)-N-hydroxy-3-methyl-2,3,4,5-tetrahydrobenzo[f][1,4]oxazepine-8-carboxamide]	≤ 100 nM
C[C@H]1COc2cc(C(=O)NO)ccc2CN1C(=O)C1CCC(C)(C)O1 (stereo partly drawn) [(3S)-4-(5,5-dimethyltetrahydrofuran-2-carbonyl)-N-hydroxy-3-methyl-2,3,4,5-tetrahydrobenzo[f][1,4]oxazepine-8-carboxamide]	≤ 100 nM
CC(=O)N1CCC(C(=O)N2CCOc3cc(C(=O)NO)ccc3C2)C1 (stereo not drawn) [4-(1-acetylpyrrolidine-3-carbonyl)-N-hydroxy-2,3,4,5-tetrahydrobenzo[f][1,4]oxazepine-8-carboxamide]	100 to 500 nM
COCC1(C(=O)N2CCOc3cc(C(=O)NO)ccc3[C@@H]2C)CCOCC1 [(S)-N-hydroxy-4-(4-(methoxymethyl)tetrahydro-2H-pyran-4-carbonyl)-5-methyl-2,3,4,5-tetrahydrobenzo[f][1,4]oxazepine-8-carboxamide]	≤ 100 nM
COCC1(C(=O)N2Cc3ccc(C(=O)NO)cc3OC[C@@H]2C)CCC1 [(S)-N-hydroxy-4-(1-(methoxymethyl)cyclobutane-1-carbonyl)-3-methyl-2,3,4,5-tetrahydrobenzo[f][1,4]oxazepine-8-carboxamide]	≤ 100 nM
COc1ccc(CC(=O)N2CC(=O)Nc3ccc(C(=O)NO)cc3C2)cc1 [N-hydroxy-4-(2-(4-methoxyphenyl)acetyl)-2-oxo-2,3,4,5-tetrahydro-1H-benzo[e][1,4]diazepine-7-carboxamide]	> 500 nM
CC(=O)N1Cc2ccc(C(=O)NO)cc2OC[C@H]1C [(R)-4-acetyl-N-hydroxy-3-methyl-2,3,4,5-tetrahydrobenzo[f][1,4]oxazepine-8-carboxamide]	> 500 nM
C[C@H]1COc2cc(C(=O)NO)ccc2CN1C(=O)[C@@H]1CC2CCC1O2 (stereo partly drawn) [(3S)-4-((2R)-7-oxabicyclo[2.2.1]heptane-2-carbonyl)-N-hydroxy-3-methyl-2,3,4,5-tetrahydrobenzo[f][1,4]oxazepine-8-carboxamide]	≤ 100 nM
O=C(NO)c1ccc2c(c1)OCCN(C(=O)c1ccc(N3CCOCC3)cc1)C2 [N-hydroxy-4-(4-morpholinobenzoyl)-2,3,4,5-tetrahydrobenzo[f][1,4]oxazepine-8-carboxamide]	100 to 500 nM
CC(C)[C@H]1c2ccc(C(=O)NO)cc2OCCN1C(=O)C1COC1 [(S)-N-hydroxy-5-isopropyl-4-(oxetane-3-carbonyl)-2,3,4,5-tetrahydrobenzo[f][1,4]oxazepine-8-carboxamide]	> 500 nM

Compound	IC50
CC1(C(=O)N2CCOc3cc(C(=O)NO)ccc3C2)CCCCC1 [N-hydroxy-4-(1-methylcyclohexane-1-carbonyl)-2,3,4,5-tetrahydrobenzo[f][1,4]oxazepine-8-carboxamide]	≤ 100 nM
CC(C)C(=O)N1Cc2ccc(C(=O)NO)cc2OC[C@@H]1C [(S)-N-hydroxy-4-isobutyryl-3-methyl-2,3,4,5-tetrahydrobenzo[f][1,4]oxazepine-8-carboxamide]	≤ 100 nM
CC(C)COCC(=O)N1CCOc2cc(C(=O)NO)ccc2C1 [N-hydroxy-4-(2-isobutoxyacetyl)-2,3,4,5-tetrahydrobenzo[f][1,4]oxazepine-8-carboxamide]	> 500 nM
COCC1(C(=O)N2Cc3ccc(C(=O)NO)cc3OC[C@@H]2C)CC1 [(S)-N-hydroxy-4-(1-(methoxymethyl)cyclopropane-1-carbonyl)-3-methyl-2,3,4,5-tetrahydrobenzo[f][1,4]oxazepine-8-carboxamide]	≤ 100 nM
C[C@H]1c2ccc(C(=O)NO)cc2OCCN1C(=O)C1COC1 [(S)-N-hydroxy-5-methyl-4-(oxetane-3-carbonyl)-2,3,4,5-tetrahydrobenzo[f][1,4]oxazepine-8-carboxamide]	≤ 100 nM
C[C@H]1COc2cc(C(=O)NO)ccc2CN1C(=O)[C@H]1CC2CCC1O2 (stereo partly drawn) [(3S)-4-((2S)-7-oxabicyclo[2.2.1]heptane-2-carbonyl)-N-hydroxy-3-methyl-2,3,4,5-tetrahydrobenzo[f][1,4]oxazepine-8-carboxamide]	≤ 100 nM
CC(=O)N1CCOc2cc(C(=O)NO)ccc2C1 [4-acetyl-N-hydroxy-2,3,4,5-tetrahydrobenzo[f][1,4]oxazepine-8-carboxamide]	≤ 100 nM
CC(C)(C(=O)N1CCOc2cc(C(=O)NO)ccc2C1)c1ccccn1 [N-hydroxy-4-(2-methyl-2-(pyridin-2-yl)propanoyl)-2,3,4,5-tetrahydrobenzo[f][1,4]oxazepine-8-carboxamide]	100 to 500 nM
C[C@H]1COc2cc(C(=O)NO)ccc2CN1C(=O)[C@]1(C)CCOC1 [(S)-N-hydroxy-3-methyl-4-((R)-3-methyltetrahydrofuran-3-carbonyl)-2,3,4,5-tetrahydrobenzo[f][1,4]oxazepine-8-carboxamide]	≤ 100 nM
COc1ccc(CC(=O)N2CCOc3cc(C(=O)NO)ccc3C2)cc1 [N-hydroxy-4-(2-(4-methoxyphenyl)acetyl)-2,3,4,5-tetrahydrobenzo[f][1,4]oxazepine-8-carboxamide]	> 500 nM
CC1(C(=O)N2Cc3ccc(C(=O)NO)cc3O[C@@H](c3ccccc3)C2)CCC1 [(S)-N-hydroxy-4-(1-methylcyclobutane-1-carbonyl)-2-phenyl-2,3,4,5-tetrahydrobenzo[f][1,4]oxazepine-8-carboxamide]	≤ 100 nM
O=C(NO)c1ccc2c(c1)OCCN(C(=O)c1ccccc1)C2 [4-benzoyl-N-hydroxy-2,3,4,5-tetrahydrobenzo[f][1,4]oxazepine-8-carboxamide]	≤ 100 nM
CN(C)C(=O)C1CN(C(=O)C2CCOCC2)Cc2ccc(C(=O)NO)cc2O1 (stereo not drawn) [N8-hydroxy-N2,N2-dimethyl-4-(tetrahydro-2H-pyran-4-carbonyl)-2,3,4,5-tetrahydrobenzo[f][1,4]oxazepine-2,8-dicarboxamide]	100 to 500 nM
COC1CCC(C(=O)N2Cc3ccc(C(=O)NO)cc3OC[C@@H]2C)CC1 (single isomer, unassigned)	≤ 100 nM
C[C@H]1CN(C=O)Cc2ccc(C(=O)NO)cc2O1 [(S)-4-formyl-N-hydroxy-2-methyl-2,3,4,5-tetrahydrobenzo[f][1,4]oxazepine-8-carboxamide]	≤ 100 nM
Cc1cc(C)c(CC(=O)N2CCOc3cc(C(=O)NO)ccc3C2)c(C)c1 [N-hydroxy-4-(2-mesitylacetyl)-2,3,4,5-tetrahydrobenzo[f][1,4]oxazepine-8-carboxamide]	≤ 100 nM
